Measured values taken from the NIST ThermoML archive (doi:10.1016/j.fluid.2010.04.018).

Assay: xn = mol fraction of the nth substance listed
Conditions: Liquid, Vibrating tube method

C1CCOC1 [tetrahydrofuran] + O=C=O
Conditions	mass density [kg/m3]
298.15 K, x2 = 0.388	906.5
298.15 K, x2 = 0.47	910.1
298.15 K, x2 = 0.588	912.1
298.15 K, x2 = 0.703	906.9
298.15 K, x2 = 0.828	883.3
298.15 K, x2 = 0.941	819.3
298.15 K, x2 = 0.983	763.3
313.15 K, x2 = 0.301	879.8
313.15 K, x2 = 0.428	883.6
313.15 K, x2 = 0.542	883
313.15 K, x2 = 0.665	873.1
313.15 K, x2 = 0.788	842.6
313.15 K, x2 = 0.881	787.7
313.15 K, x2 = 0.921	737.7
313.15 K, x2 = 0.938	699.9
